Measured values: publication PMC12650265 (The Journal of Experimental Medicine, 2025)
pIC50: −log10 of the molar value.

Tests used:
[1] = system: CD3^+ MR1-5-OP-RU tetramer^+ MAIT cells; assay: MAIT cell proliferation in CTV-labeled PBMCs; format: cell-based, human; conditions: 7-day culture, 5-OP-RU 10 µM, others 100 µM
[2] = system: MAIT cells from PBMCs; assay: primary MAIT cell activation in PBMCs (CD69, TNF); format: cell-based, human; conditions: 16-h incubation
[3] = system: soluble WT MR1; assay: fluorescence-based thermal shift (thermostability) assay of MR1–ligand complexes; format: binding, human; conditions: MR1 refolded with the ligand, SYPRO Orange, 28 to 95°C, three independent experiments
[4] = system: T1, folded MR1 in C1R.MR1 cells; assay: intracellular total folded MR1 by flow cytometry (8F2.F9); format: cell-based, human; conditions: 16 h, 100 µM
T1 construct: expressed in transfected cells; host or cells: C1R B lymphoblastoid cells transduced with MR1*01

[5] = biological target: T2, hMR1 protein (Homo sapiens, UniProt Q95460); assay: fluorescence polarization–based cell-free assay, competition with JYM20 for MR1 binding; conditions: 50% inhibition of 10 nM JYM20 binding to 100 nM empty hMR1, 37°C; three independent experiments in triplicate
T2 construct: plasmids encoding for the extracellular domains of MR1, β2m, and the AF-7 TCRα and TCRβ chains; made in house; host or cells: Escherichia coli BL21(DE3)

[6] = system: T3, human MR1–β2-microglobulin (β2m) complex; assay: refolding of recombinant MR1-β2m with ligand; format: binding; conditions: ligand added to refolding buffer; gel filtration and SDS-PAGE
T3 construct: plasmids encoding for the extracellular domains of MR1, β2m, and the AF-7 TCRα and TCRβ chains; made in house

[7] = system: T4, MR1 in C1R.MR1 cells; assay: Endo H treatment and western blot of intracellular MR1; format: cell-based, human; conditions: 16 h, Ac-6-FP 10 μM, RF and catabolites 100 μM
T4 construct: expressed in transfected cells; host or cells: C1R B lymphoblastoid cells transduced with MR1*01
Method: The downregulation of MR1 on the cell surface by the RF catabolites could be due to the depletion of the intracellular ER-resident MR1 pool, or due to the retention of MR1 in the ER, as shown for the DB28 ligand ([Salio et al., 2020]). To investigate this, C1R.MR1 cells were treated for 16 h with 100 µM RF or RF catabolites, conditions that induce MR1 downregulation (Fig. 3 A). Cells were lysed, and treated with endoglycosidase (Endo) H, to distinguish molecules that remain within the ER from those that have trafficked to the cell surface ([McWilliam et al., 2016]), and then, MR1 levels were assessed by immunoblotting (Fig. 3 A).
C1R.MR1 cells were cultured with different RF catabolites for 16 h, at 37°C. Samples were then treated with or without Endo H for 1-h incubation at 37°C. Cells were lysed, and lysate protein concentration was quantified by BCA assay. Equal amounts of samples (40 µg total protein) were separated on SDS-PAGE gels before being transferred onto nitrocellulose membranes and incubated with primary (anti-MR1; clone 8G3) ([McWilliam et al., 2020]) then corresponding secondary antibody (IRDye 800CW anti-mouse IgG, Cat. No. 925-32210; LICORbio). The protein bands were visualized by the Li-Cor system.

[8] = system: T5, MR1^R9H on C1R.MR1^R9H cells; assay: cell surface MR1^R9H by flow cytometry; format: cell-based, human
T5 construct: expressed in transfected cells; host or cells: C1R cells stably transduced with MR1^R9H
Description: (§1) We then tested the effect of the RF catabolites on the expression of two mutant versions of MR1 termed MR1^R9H ([Howson et al., 2020]) and MR1^K43A ([Reantragoon et al., 2013]). First, we tested the MR1^R9H mutant ([Howson et al., 2020]), which represents a rare, natural human polymorph. […] We used C1R.MR1^R9H cells, which are produced by stable transduction of wild-type C1R cells, which express low levels of wild-type MR1, with a vector expressing the MR1^R9H mutant ([Howson et al., 2020]). […] When C1R. […] Next, we sought to understand how the previously characterized K43A mutation affects ligand binding.
The level of MR1 expressed on the cell surface was measured after the exposure to the investigated ligands as previously described ([Awad et al., 2020a]; [Wang et al., 2022a]). C1R Ag-presenting B lymphocytes overexpressing MR1*01 (C1R.MR1), MR1^K43A mutant (C1R.MR1^K43A), MR1^R9H mutant (C1R.MR1^R9H), or HLA-A*02:01 (C1R-A2), in addition to the monocytic THP-1-MR1 cells, were used in this study. […] The PE fluorescence intensity reflects the surface MR1 level. The data were acquired with LSRFortessa X-20 (BD Biosciences) and Diva software (BD Biosciences) and analyzed using FlowJo software (BD Biosciences).

[9] = system: T6, MR1 on PBMC-derived B lymphocytes; assay: MR1 surface expression on primary B cells; format: cell-based; conditions: primary human B cells, 16 h, highest doses, with or without 5-OP-RU
T6 construct: we also measured MR1 on the surface of cells expressing wild-type levels of MR1; endogenous in cells; host or cells: PBMC-derived B lymphocytes from healthy human donors

[10] = system: T7, surface MR1*01 on THP-1.MR1 cells; assay: quantification of cell surface MR1 by flow cytometry, THP-1.MR1 cells; format: cell-based, human; conditions: 3 h
T7 construct: expressed in transfected cells; host or cells: THP-1 monocytic cells transduced with MR1
Method: Next, we investigated whether these RF catabolites can impact MR1 cell surface expression in both MR1-transduced B cell lymphoblastoid (C1R.MR1) and monocytic (THP-1.MR1) cell lines (Fig. 2). Here, the cells were incubated with 1–200 µM of RF or the RF catabolites, and the cell surface levels of MR1 were quantified by flow cytometry ([Awad et al., 2020a]; [Keller et al., 2017]). […] The MR1 downregulation seen in C1R.MR1 cells was specific to MR1 as the level of HLA-A*02:01 was not affected after incubating C1R-A2 with the ligands (Fig. S1 E). […] This MR1 downregulation varied between cell types, with a higher extent observed in THP-1.MR1 than C1R.MR1, and was seen after staining with two different conformational anti-MR1 antibodies (clones 8F2F9 and 26.5; Fig. 2 G). Beyond APCs overexpressing MR1, we also measured MR1 on the surface of cells expressing wild-type levels of MR1.
The level of MR1 expressed on the cell surface was measured after the exposure to the investigated ligands as previously described ([Awad et al., 2020a]; [Wang et al., 2022a]). […] The PE fluorescence intensity reflects the surface MR1 level. The data were acquired with LSRFortessa X-20 (BD Biosciences) and Diva software (BD Biosciences) and analyzed using FlowJo software (BD Biosciences).

[11] = system: SKW-3 cells expressing MAIT TCR AF-7; assay: SKW-3 reporter T cell activation (CD69), coculture with C1R.MR1; format: cell-based; conditions: for reactivity to 5-OP-RU (CD69): SKW-3-AF-7, in the presence of 1 nM 5-OP-RU; for reactivity to RL-7-Me (CD69): SKW-3-AF-7, in the presence of 100 nM RL-7-Me
Method: (§2) Given the intracellular MR1 retention induced by the RF catabolites, we anticipated that these ligands could influence the activity of MR1-reactive T cells. First, we utilized a system whereby reporter SKW-3 T cell lines were cocultured with C1R.MR1 APCs and activation was determined by CD69 expression. […] In contrast, SKW-3-MBV28 cells were inhibited by alloxazine but activated by lumichrome (Fig. S3, D–F). Two MR1-restricted TRAV1-2^−ve SKW-3 T cell lines were also tested.
(§3) C1R.MR1 cells (1 × 10^5) were initially stained with CTV (Thermo Fisher Scientific) for 15 min and then incubated with RF catabolites for 20 h. […] Cells were subsequently stained with PE-Cy7-conjugated anti-CD69 (1:100; BD Biosciences) and PE-labeled anti-MR1 (1:100, clone 26.5; BD Biosciences), before analysis on a LSRFortessa (BD Biosciences) flow cytometer. Activation of the SKW-3 cells was reflected by the cell surface CD69 expression.

[12] = system: T8, MR1^K43A on C1R.MR1^K43A cells; assay: cell surface MR1^K43A by flow cytometry; format: cell-based, human; conditions: 3 h
T8 construct: expressed in transfected cells; host or cells: C1R cells overexpressing MR1^K43A
Description: as §1
The level of MR1 expressed on the cell surface was measured after the exposure to the investigated ligands as previously described ([Awad et al., 2020a]; [Wang et al., 2022a]). C1R Ag-presenting B lymphocytes overexpressing MR1*01 (C1R.MR1), MR1^K43A mutant (C1R.MR1^K43A), MR1^R9H mutant (C1R.MR1^R9H), or HLA-A*02:01 (C1R-A2), in addition to the monocytic THP-1-MR1 cells, were used in this study. 2 × 10^5 cells were incubated with RF catabolites for 3 or 16 h at 37°C and 5% CO2 in 200 μl folate-free RPMI 1640 medium from Gibco (Cat. No. 11875-093) fortified with 10% fetal bovine serum, sodium pyruvate (1 mmol/L), HEPES buffer (15 mmol/L), pH 7.2–7.5, 2% penicillin (100 U/ml), streptomycin ([…]), GlutaMAX (2 mmol/L), nonessential amino acids (0.1 mmol/L) (all from Thermo Fisher Scientific, Life Technologies), and 2-mercaptoethanol ([…], Sigma-Aldrich) (RF-10). After incubation, the cells were first stained with Zombie Aqua Fixable Viability Kit from BioLegend (Cat. No. 423102) and then incubated with biotinylated 8F2F9 αMR1 antibody for 30 min on ice. The unbound antibody was then washed off with 2% fetal bovine serum/PBS (called 2% FACS hereafter) buffer. The cells were finally incubated with PE-conjugated streptavidin (30 μg/ml; BioLegend) and then washed with 2% FACS buffer. The PE fluorescence intensity reflects the surface MR1 level. The data were acquired with LSRFortessa X-20 (BD Biosciences) and Diva software (BD Biosciences) and analyzed using FlowJo software (BD Biosciences).

[13] = system: SKW-3-MAV36 line; assay: SKW-3 reporter T cell activation (CD69), coculture with C1R.MR1; format: cell-based; conditions: SKW-3-MAV36, in the presence of 5-OP-RU
Method: as §2, §3

[14] = system: SKW-3-DGB129 line; assay: as above; format: cell-based; conditions: SKW-3-DGB129 cocultured with C1R.MR1
Method: as §2, §3

[15] = system: SKW-3 cells expressing MAIT TCR MBV28; assay: as above; format: cell-based; conditions: SKW-3-MBV28, in the presence of 5-OP-RU
Method: as §2, §3

[16] = system: T9, surface MR1*01 on C1R.MR1 cells; assay: quantification of cell surface MR1 by flow cytometry, C1R.MR1 cells; format: cell-based, human; conditions: C1R.MR1 cells, 3 h, 1–200 µM, 8F2F9 antibody
T9 construct: expressed in transfected cells; host or cells: C1R B lymphoblastoid cells transduced with MR1*01

T2 sequence (Q95460 23-302 limits assumed): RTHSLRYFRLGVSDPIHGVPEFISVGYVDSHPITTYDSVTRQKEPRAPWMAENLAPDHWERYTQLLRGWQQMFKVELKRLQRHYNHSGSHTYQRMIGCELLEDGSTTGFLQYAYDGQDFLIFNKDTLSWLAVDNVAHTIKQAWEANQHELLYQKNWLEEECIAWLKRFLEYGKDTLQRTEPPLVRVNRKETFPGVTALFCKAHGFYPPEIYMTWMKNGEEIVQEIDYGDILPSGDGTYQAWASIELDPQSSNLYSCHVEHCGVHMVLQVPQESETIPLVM
T2 sequence (P61769 21-119 partner): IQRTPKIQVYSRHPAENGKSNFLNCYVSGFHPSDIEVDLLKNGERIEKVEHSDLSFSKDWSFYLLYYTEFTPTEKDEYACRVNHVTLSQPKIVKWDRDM

CC(=O)C=Nc1c(NCC(O)C(O)C(O)CO)[nH]c(=O)[nH]c1=O [5-OP-RU, 5-(2-oxopropylideneamino)-6-D-ribitylaminouracil, reference compound]
MAIT cell proliferation [1]: significantly proliferated | CD69 upregulation on MAIT cells, ligand alone [2]: induced robust CD69 upregulation | Tm50 (half-maximum melting temperature), Mean ± SD [3]: 58.14 ± 0.60 °C

Cc1cc2nc3c(=O)[nH]c(=O)nc-3n(CC=O)c2cc1C [FMF, 10-formylmethylflavin]
total level of folded MR1 (intracellular staining with 8F2.F9) [4]: increased the total level of folded MR1 | pIC50 [5]: 4.27 | folding of the MR1-β2m cocomplex in solution [6]: facilitated the correct folding of the MR1-β2m cocomplex

CC(=O)Nc1nc2ncc(C=O)nc2c(=O)[nH]1 [Ac-6-FP, acetyl-6-FP, reference compound]
total level of folded MR1 (intracellular staining with 8F2.F9) [4]: significantly increased total folded MR1 | Endo H–resistant MR1 [7]: increase in MR1 of a higher molecular weight, in line with Endo H resistance | Tm50 (half-maximum melting temperature), Mean ± SD [3]: 64.22 ± 0.27 °C | MR1^R9H surface level [8]: significantly increased

Cc1cc2nc3c(=O)[nH]c(=O)nc-3n(C)c2cc1C [Lumiflavin, lumiflavin]
MR1 surface expression [9]: reduced MR1 surface expression | pIC50 [5]: 4.64 | folding of the MR1-β2m cocomplex in solution [6]: facilitated the correct folding of the MR1-β2m cocomplex | MR1 cell surface expression [10]: downregulated MR1 after 3 h | reactivity to 5-OP-RU (CD69) [11]: enhanced activation | reactivity to RL-7-Me (CD69) [11]: activation was enhanced | Tm50 (half-maximum melting temperature), Mean ± SD ([3]; listed as MR1-Lumiflavin): 52.02 ± 0.58 °C | MR1^K43A at the cell surface [12]: increased MR1^K43A at the cell surface

O=c1nc2[nH]c3ccccc3nc-2c(=O)[nH]1 [Alloxazine, alloxazine]
MR1 surface expression [9]: reduced MR1 surface expression | total level of folded MR1 (intracellular staining with 8F2.F9) [4]: increased the total level of folded MR1 | pIC50 [5]: 4.87 | folding of the MR1-β2m cocomplex in solution [6]: facilitated the correct folding of the MR1-β2m cocomplex | reactivity to 5-OP-RU (CD69) [13]: inhibited | reactivity of MR1 autoreactive, nucleobase-adduct reactive line (CD69) [14]: inhibited | reactivity to 5-OP-RU (CD69) [11]: not altered | reactivity to RL-7-Me (CD69) [11]: inhibited in a dose-dependent manner | reactivity to 5-OP-RU (CD69) [15]: inhibited | MR1 cell surface expression [16]: reduced MR1 cell surface | Tm50 (half-maximum melting temperature), Mean ± SD ([3]; listed as MR1-Alloxazine): 50.73 ± 0.45 °C | MR1^K43A at the cell surface [12]: increased MR1^K43A at the cell surface
